# Laboratory results published in patent US20230363391A1, “Biocidal Composition and Method” (ARXADA AG, priority 2020, published 2023).
# Marks after values point to notes of the source that are not given here.
# Legend:
# [1] = tested on: bacteria, fungi, and yeast; conditions: background statement; cited from earlier work
# [2] = tested on: Pseudomonas aeruginosa, Escherichia coli, Enterobacter cloacae, Acinetobacter calcoaceticus; experiment: Repeat in-can challenge test, same conditions (Table 2); type: cell-based
# Procedure: (§1) Various formulations were made in accordance with the present disclosure and tested for performance. In one challenge test, the efficacy of dicyandiamide as an adjuvant for BIT was evaluated using modified ASTM D2574-97 “Standard Test Method for Resistance of Emulsion Paints in the Container to Attack by Microorganisms” with higher inoculation volumes and frequency. A standard consortium of four (4) bacterial populations: Pseudomonas aeruginosa, Escherichia coli, Enterobacter cloacae, Acinetobacter calcoaceticus was used to inoculate three (3) different samples at ten percent (10%), five percent (5%), or two and a half percent (2.5%) of the sample size. At twenty-four (24) hours and seventy-two (72) hours after each inoculation, a portion of each sample was streaked on tryptic soy agar. A dilution plate count was performed at the last seventy-two (72) hour time point.
# (§2) Example data provided in Tables 1, 2 and 3 should be understood as indicating the degree of microbial growth observed for a given data point unless otherwise indicated. In particular, each plate is ranked from 0 through 5c (i.e., one of 0, 1, 2, 3, 4, 5, or 5c) according to the degree of observed microbial growth, where: a “0” ranking indicates no growth; a “1” ranking indicates one (1) through five (5) observed colony forming unit (cfu), i.e., the plate was very lightly contaminated; a “2” ranking indicates six (6) through fifteen (15) cfu, i.e., the plate was lightly contaminated; a “3” ranking indicates sixteen (16) through thirty (30) cfu, i.e., the plate was moderately contaminated; a “4” ranking indicates thirty-one (31) through forty-five (45) cfu, i.e., the plate was heavily contaminated; a “5” ranking indicates greater than (45) cfu, i.e., the plate was severely contaminated; and a “5c” ranking indicates confluent growth, i.e., the plate was very severely contaminated. Thus, for instance, Table 1, Challenge 1 at 24 h for BIT 50 ppm has a value of 5 indicating greater than forty-five (45) cfu were observed. As another example for illustration, Table 1, Challenge 1 at 24 h for dicyandiamide 5,000 ppm + BIT 50 ppm has a value of 1 indicating one (1) through five (5) cfu was observed.
# [3] = tested on: Pseudomonas aeruginosa, Escherichia coli, Enterobacter cloacae, Acinetobacter calcoaceticus; experiment: In-can challenge test, modified ASTM D2574-97 (Table 1); type: cell-based
# Procedure: as §1, §2
# [4] = neutral pH; cited from earlier work
# [5] = tested on: microbial growth; experiment: In-can challenge test of dicyandiamide as adjuvant for MIT (Table 3); type: cell-based; conditions: for Passing result of challenge test (asterisk on sample) / 1st 24, degree of microbial growth (ranking) / 1st 72, degree of microbial growth (ranking) / 2nd 72, degree of microbial growth (ranking) / 3rd 24, degree of microbial growth (ranking) / 3rd 72, degree of microbial growth (ranking): Dicyandiamide 0
# Text: However, using a combination of MIT and dicyandiamide can allow for effective microbial control at MIT concentrations as low as 20 ppm.
# as §2
# [6] = MIT - 50 30 ppm (MIT 15 ppm as active)
# [7] = MIT - 50 40 ppm (MIT 20 ppm as active)
# [8] = MIT - 50 50 ppm (MIT 25 ppm as active)
# [9] = MIT - 50 60 ppm (MIT 30 ppm as active)
# [10] = MIT - 50 70 ppm (MIT 35 ppm as active)
compound,measurement,setting,value
"O=c1[nH]sc2ccccc12 [BIT, 1,2-benzisothiazolin-3-one]",Amount required for a reliable and quick biocidal activity,[1],≤ 500 ppm
same,"Challenge 1 10% 24 h, degree of microbial growth (ranking)",[2]; BIT 35 ppm,5c
same,"Challenge 1 10% 72 h, degree of microbial growth (ranking)",[2]; BIT 35 ppm,5c
same,"Challenge 2 5% 72 h, degree of microbial growth (ranking)",[2]; BIT 35 ppm,5c
same,"Challenge 3 2.5% 24 h, degree of microbial growth (ranking)",[2]; BIT 35 ppm,5c
same,"Challenge 3 2.5% 72 h, dilution plate count",[2]; BIT 35 ppm,3.0×10^6
same,"Challenge 1 10% 24 h, degree of microbial growth (ranking)",[2]; BIT 50 ppm,5c
same,"Challenge 1 10% 72 h, degree of microbial growth (ranking)",[2]; BIT 50 ppm,5c
same,"Challenge 2 5% 72 h, degree of microbial growth (ranking)",[2]; BIT 50 ppm,5c
same,"Challenge 3 2.5% 24 h, degree of microbial growth (ranking)",[2]; BIT 50 ppm,5c
same,"Challenge 3 2.5% 72 h, dilution plate count",[2]; BIT 50 ppm,6.6×10^6
same,"Challenge 1 10% 24 h, degree of microbial growth (ranking)",[2]; BIT 65 ppm,5c
same,"Challenge 1 10% 72 h, degree of microbial growth (ranking)",[2]; BIT 65 ppm,"3 (sixteen (16) through thirty (30) cfu, i.e., the plate was moderately contaminated)"
same,"Challenge 2 5% 72 h, degree of microbial growth (ranking)",[2]; BIT 65 ppm,5c
same,"Challenge 3 2.5% 24 h, degree of microbial growth (ranking)",[2]; BIT 65 ppm,5c
same,"Challenge 3 2.5% 72 h, dilution plate count",[2]; BIT 65 ppm,1.0×10^6
same,"Challenge 1 10% 24 h, degree of microbial growth (ranking)",[2]; BIT 75 ppm,5c
same,"Challenge 1 10% 72 h, degree of microbial growth (ranking)",[2]; BIT 75 ppm,0
same,"Challenge 2 5% 72 h, degree of microbial growth (ranking)",[2]; BIT 75 ppm,"5 (greater than (45) cfu, i.e., the plate was severely contaminated)"
same,"Challenge 3 2.5% 24 h, degree of microbial growth (ranking)",[2]; BIT 75 ppm,5c
same,"Challenge 3 2.5% 72 h, dilution plate count",[2]; BIT 75 ppm,2.8×10^5
same,"Challenge 1 10% 24 h, degree of microbial growth (ranking)",[2]; BIT 100 ppm,5c
same,"Challenge 1 10% 72 h, degree of microbial growth (ranking)",[2]; BIT 100 ppm,0
same,"Challenge 2 5% 72 h, degree of microbial growth (ranking)",[2]; BIT 100 ppm,"5 (greater than (45) cfu, i.e., the plate was severely contaminated)"
same,"Challenge 3 2.5% 24 h, degree of microbial growth (ranking)",[2]; BIT 100 ppm,5c
same,"Challenge 3 2.5% 72 h, dilution plate count",[2]; BIT 100 ppm,1.8×10^7
same,"Challenge 1 10% 24 h, degree of microbial growth (ranking)",[3]; BIT 50 ppm,"5 (greater than (45) cfu, i.e., the plate was severely contaminated)"
same,"Challenge 1 10% 72 h, degree of microbial growth (ranking)",[3]; BIT 50 ppm,"2 (six (6) through fifteen (15) cfu, i.e., the plate was lightly contaminated)"
same,"Challenge 2 5% 72 h, degree of microbial growth (ranking)",[3]; BIT 50 ppm,"5 (greater than (45) cfu, i.e., the plate was severely contaminated)"
same,"Challenge 3 2.5% 24 h, degree of microbial growth (ranking)",[3]; BIT 50 ppm,5c
same,"Challenge 3 2.5% 72 h, dilution plate count",[3]; BIT 50 ppm,7.8×10^6
same,"Challenge 1 10% 24 h, degree of microbial growth (ranking)",[3]; BIT 100 ppm,"5 (greater than (45) cfu, i.e., the plate was severely contaminated)"
same,"Challenge 1 10% 72 h, degree of microbial growth (ranking)",[3]; BIT 100 ppm,0
same,"Challenge 2 5% 72 h, degree of microbial growth (ranking)",[3]; BIT 100 ppm,0
same,"Challenge 3 2.5% 24 h, degree of microbial growth (ranking)",[3]; BIT 100 ppm,"5 (greater than (45) cfu, i.e., the plate was severely contaminated)"
same,"Challenge 3 2.5% 72 h, dilution plate count",[3]; BIT 100 ppm,5.0×10^1
Zinc pyrithione [ZPT],Solubility in water,[4],8 ppm
"N#CN=C(N)N [Dicyandiamide, 2-cyanoguanidine]","Challenge 1 10% 24 h, degree of microbial growth (ranking)","[2]; Dicyandiamide 5,000 ppm",5c
same,"Challenge 1 10% 72 h, degree of microbial growth (ranking)","[2]; Dicyandiamide 5,000 ppm",5c
same,"Challenge 2 5% 72 h, degree of microbial growth (ranking)","[2]; Dicyandiamide 5,000 ppm",5c
same,"Challenge 3 2.5% 24 h, degree of microbial growth (ranking)","[2]; Dicyandiamide 5,000 ppm",5c
same,"Challenge 3 2.5% 72 h, dilution plate count","[2]; Dicyandiamide 5,000 ppm",2.4×10^7
same,"Challenge 1 10% 24 h, degree of microbial growth (ranking)","[3]; Dicyandiamide 5,000 ppm",5c
same,"Challenge 1 10% 72 h, degree of microbial growth (ranking)","[3]; Dicyandiamide 5,000 ppm",5c
same,"Challenge 2 5% 72 h, degree of microbial growth (ranking)","[3]; Dicyandiamide 5,000 ppm",5c
same,"Challenge 3 2.5% 24 h, degree of microbial growth (ranking)","[3]; Dicyandiamide 5,000 ppm",5c
same,"Challenge 3 2.5% 72 h, dilution plate count","[3]; Dicyandiamide 5,000 ppm",8.0×10^6
same,"Challenge 1 10% 24 h, degree of microbial growth (ranking)","[3]; Dicyandiamide 10,000 ppm",5c
same,"Challenge 1 10% 72 h, degree of microbial growth (ranking)","[3]; Dicyandiamide 10,000 ppm","1 (one (1) through five (5) observed colony forming unit (cfu), i.e., the plate was very lightly contaminated)"
same,"Challenge 2 5% 72 h, degree of microbial growth (ranking)","[3]; Dicyandiamide 10,000 ppm","5 (greater than (45) cfu, i.e., the plate was severely contaminated)"
same,"Challenge 3 2.5% 24 h, degree of microbial growth (ranking)","[3]; Dicyandiamide 10,000 ppm","5 (greater than (45) cfu, i.e., the plate was severely contaminated)"
same,"Challenge 3 2.5% 72 h, dilution plate count","[3]; Dicyandiamide 10,000 ppm",4.2×10^6
same,Efficacy in challenge test compared to the blank,"[3]; dicyandiamide alone, not in combination with BIT, Table 1",no significant difference compared to the blank
"Cn1sccc1=O [MIT - 50, 2-methyl-4-isothiazolin-3-one]",Passing result of challenge test (asterisk on sample),[5]; MIT 30 ppm as active,MIT - 50 60 ppm (30)*
same,Passing result of challenge test (asterisk on sample),[5]; MIT 35 ppm as active,MIT - 50 70 ppm (35)*
same,"1st 24, degree of microbial growth (ranking)",[5]; [6],"5 (greater than (45) cfu, i.e., the plate was severely contaminated)"
same,"1st 72, degree of microbial growth (ranking)",[5]; [6],"5 (greater than (45) cfu, i.e., the plate was severely contaminated)"
same,"2nd 72, degree of microbial growth (ranking)",[5]; [6],"5 (greater than (45) cfu, i.e., the plate was severely contaminated)"
same,"3rd 24, degree of microbial growth (ranking)",[5]; [6],"5 (greater than (45) cfu, i.e., the plate was severely contaminated)"
same,"3rd 72, degree of microbial growth (ranking)",[5]; [6],"5 (greater than (45) cfu, i.e., the plate was severely contaminated)"
same,"1st 24, degree of microbial growth (ranking)",[5]; [7],"5 (greater than (45) cfu, i.e., the plate was severely contaminated)"
same,"1st 72, degree of microbial growth (ranking)",[5]; [7],"5 (greater than (45) cfu, i.e., the plate was severely contaminated)"
same,"2nd 72, degree of microbial growth (ranking)",[5]; [7],"5 (greater than (45) cfu, i.e., the plate was severely contaminated)"
same,"3rd 24, degree of microbial growth (ranking)",[5]; [7],"5 (greater than (45) cfu, i.e., the plate was severely contaminated)"
same,"3rd 72, degree of microbial growth (ranking)",[5]; [7],"5 (greater than (45) cfu, i.e., the plate was severely contaminated)"
same,"1st 24, degree of microbial growth (ranking)",[5]; [8],"5 (greater than (45) cfu, i.e., the plate was severely contaminated)"
same,"1st 72, degree of microbial growth (ranking)",[5]; [8],"2 (six (6) through fifteen (15) cfu, i.e., the plate was lightly contaminated)"
same,"2nd 72, degree of microbial growth (ranking)",[5]; [8],"5 (greater than (45) cfu, i.e., the plate was severely contaminated)"
same,"3rd 24, degree of microbial growth (ranking)",[5]; [8],"5 (greater than (45) cfu, i.e., the plate was severely contaminated)"
same,"3rd 72, degree of microbial growth (ranking)",[5]; [8],"5 (greater than (45) cfu, i.e., the plate was severely contaminated)"
same,"1st 24, degree of microbial growth (ranking)",[5]; [9],"5 (greater than (45) cfu, i.e., the plate was severely contaminated)"
same,"1st 72, degree of microbial growth (ranking)",[5]; [9],0
same,"2nd 72, degree of microbial growth (ranking)",[5]; [9],"5 (greater than (45) cfu, i.e., the plate was severely contaminated)"
same,"3rd 24, degree of microbial growth (ranking)",[5]; [9],"5 (greater than (45) cfu, i.e., the plate was severely contaminated)"
same,"3rd 72, degree of microbial growth (ranking)",[5]; [9],0
same,"1st 24, degree of microbial growth (ranking)",[5]; [10],"5 (greater than (45) cfu, i.e., the plate was severely contaminated)"
same,"1st 72, degree of microbial growth (ranking)",[5]; [10],0
same,"2nd 72, degree of microbial growth (ranking)",[5]; [10],0
same,"3rd 24, degree of microbial growth (ranking)",[5]; [10],"5 (greater than (45) cfu, i.e., the plate was severely contaminated)"
same,"3rd 72, degree of microbial growth (ranking)",[5]; [10],0
same,MIT concentration displaying passing results,"[5]; MIT alone, no guanidine enhancer",≥ 30 ppm
